The results in this text go back to patent US20120101093A1, “SUBSTITUTED IMIDAZO[1,2-A]PYRIDINE DERIVATIVES, PHARMACEUTICAL COMPOSITIONS, AND METHODS OF USE AS BETA-SECRETASE INHIBITORS” (HIGH POINT PHARMACEUTICALS, LLC, priority 2009, published 2012).

For one assay, the target named is T1, BACE-1 enzyme (Homo sapiens, UniProt P56817).
T1 construct: purchased R & D Systems 931AS
As to the kind of experiment: BACE Fluorescence Resonance Energy Transfer (FRET) Assay. It is filed as biochemical. Particulars: pH 4-4.5, 30 min pre-incubation, about 1.5 hours reaction. The essentials: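 Fluorescence (ex 540, em 585 nm) after ~1.5 h room-temperature cleavage of a quenched rhodamine peptide tracks BACE-1 activity. Enzyme and compound first sit 30 min in pH 4-4.5 acetate buffer with CHAPS, Triton X-100, EDTA, 7.5% DMSO. Values given as IC50 or % inhibition.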

Assay [1] deals with Aβ1-40 secreted from HEK293 cells stably expressing wildtype human APP695 protein (HEK-APPwt cells). As to the kind of experiment: Aβ Cell Based Assay (Aβ1-40 secretion, ELISA). Particulars: Homo sapiens, HEK293, 6 h, 6 hours incubation, reduction of Aβ1-40 secretion. Here is the method:
Aβ Cell Based Assay Procedure
In the following assay, the proteolytic activity of BACE in cells exposed to varying concentrations of a compound of interest is measured by observing the amount of Aβ1-40 secreted from HEK293 cells (Human Embryonic Kidney epithelial cell line) stably expressing wildtype human APP695 protein (HEK-APPwt cells).
HEK-APPwt cells were grown in high glucose DMEM (Dulbecco's Modified Eagles Medium SIGMA Cat.# D5796) supplemented with 25 mM HEPES (4-(2-hydroxyethyl)-1-piperazineethanesulfonic acid) (pH 7.4) (Invitrogen Cat.# 15630-114), 0.1 mM NEAA (Non-essential Amino Acids) (BioWhittaker Cat. #13-114E), 10% fetal bovine serum (SIGMA Cat. #F4135) and 250 μg/mL hygromycin (Invitrogen Cat. #10687-010) in T-225 flasks at 37° C. with 5% CO2 and humidity control.
Test compounds were initially prepared in DMSO and diluted with DMEM media containing 2% FBS (Fetal bovine serum). Ten standard compound solutions were prepared having a range of concentrations. The standard compound solutions were used to determine the EC50 of the test compound. The range of concentrations chosen may depend on the compound's predicted potency.
To prepare the cells for the assay, a flask containing HEK-APPwt cells were trypsinized briefly (1 mL trypsin), and once the cells detached, 4 mL of 10% FBS-DMEM was added to the flask. The detached cells were centrifuged at 900 rpm for 5 min to form a pellet.
The HEK-APPwt cell pellet was re-suspended with 10 mL DMEM media containing 2% FBS. 80 μL of the cell suspension was added to each well of a 96-well cell culture plate to give 100×10^4cells/ml. 10 μL of a standard compound solution was added to each well of the 96-well cell culture plate followed by 10 μL of Alamar blue solution. The cells were incubated at 37° C. in a 5% CO2 incubator for 6 hours.
At the end of the incubation, the plates were removed from incubator, and the supernatant was collected. A≈1-40 concentration in the medium was measured by using a commercial Aβ1-X ELISA kit (IBL, Japan Cat. #27729). Briefly, the ELISA plates were coated with an anti-human AO (N)(82E1) mouse IgG monoclonal antibody. A horseradish peroxidase conjugated anti-human Aβ11-28 mouse IgG monoclonal antibody was used for detection. The cell culture supernatant was diluted with EIA buffer +protease inhibitors (kit buffer containing protease inhibitors (1 mL PI/30 mL buffer)). A 100 μL aliquot of the diluted supernatant was added to each well of the ELISA plate and incubated for 6 hrs at 4° C. The ELISA plate was washed 8 times with phosphate buffered saline (PBS) containing 0.05% Tween 20.
A 100 μL of detection antibody was then added and incubated for 1 hour at 4° C. The plate was washed 8 times with PBS buffer containing 0.05% Tween 20 followed by addition of 100 μL of the chromogen tetramethylbenzidine (TMB). The plate was incubated in the dark at room temperature for about 30 min and a stop solution (1N H2SO4) was added.
The intensity of the color developed was measured at 450 nm. The optical density at 450 nm (OD450) is proportional to the concentration of human Aβ1-40 secreted by the cell. As a reference, N-[N-(3,5-difluorophenacetyl-L-alanyl)]-S-phenylglycine t-butyl ester (DAPT, a γ-secretase inhibitor) was used to indicate 100% inhibition of BACE activity. Thus, the assay measures the ability of a compound of interest to reduce Aβ1-40 secretion. For select compounds, compound potency is reported in Table 3 as the EC50 by calculating the percent inhibition at all concentration levels and the data were fit with non-linear curve fitting algorithm using GraphPad Prism.
Background: ELISA stands for enzyme-linked immunosorbent assay.

Where a name gives a salt, the structure may show the parent alone.

One may read the IC50 as the concentration at which inhibition is half-maximal. A high value points to weaker potency. One may read the EC50 as the concentration at which the effect is half-maximal. Higher therefore signals lower potency in that assay.

T1 sequence (P56817 46-457 limits assumed): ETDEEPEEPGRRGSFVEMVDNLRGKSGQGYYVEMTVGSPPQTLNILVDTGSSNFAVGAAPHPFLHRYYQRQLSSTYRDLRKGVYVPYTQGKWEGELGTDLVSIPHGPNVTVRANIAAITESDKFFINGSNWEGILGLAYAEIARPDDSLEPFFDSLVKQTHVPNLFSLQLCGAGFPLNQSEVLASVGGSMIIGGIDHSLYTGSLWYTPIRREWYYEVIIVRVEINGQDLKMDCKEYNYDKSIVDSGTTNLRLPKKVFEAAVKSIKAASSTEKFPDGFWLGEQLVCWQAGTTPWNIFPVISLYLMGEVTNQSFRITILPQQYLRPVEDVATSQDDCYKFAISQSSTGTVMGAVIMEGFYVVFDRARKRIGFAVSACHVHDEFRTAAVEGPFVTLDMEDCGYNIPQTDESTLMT

`Cc1ccc2nc(C(=O)Nc3nc4cc(-c5cccc(C(F)(F)F)c5)ccc4[nH]3)cn2c1` [Example 59, 6-Methyl-imidazo[1,2-a]pyridine-2-carboxylic acid [5-(3-trifluoromethyl-phenyl)-1H-benzoimidazol-2-yl]-amide] came in with a half-maximal inhibitory concentration (IC50) on BACE-1 enzyme of 0.41 µM. In addition, the midpoint of the response in assay [1], the EC50, lay at 3.16 µM.
In turn, `O=C(Nc1nc2cc(-c3cccc(C(F)(F)F)c3)ccc2[nH]1)c1cn2c(CN3CCC(O)CC3)cccc2n1` [Example 167, 5-(4-Hydroxy-piperidin-1-ylmethyl)-imidazo[1,2-a]pyridine-2-carboxylic acid [5-(3-trifluoromethyl-phenyl)-1H-benzoimidazol-2-yl]-amide] returned an IC50 against BACE-1 enzyme of 0.77 µM. Moreover, the half-maximal effective concentration (EC50) in assay [1] is 1.54 µM.
Take `CN(C)Cc1cccn2cc(C(=O)Nc3nc4cc(-c5cccc(C(F)(F)F)c5)ccc4[nH]3)nc12` [Example 197, 8-Dimethylaminomethyl-imidazo[1,2-a]pyridine-2-carboxylic acid [5-(3-trifluoromethyl-phenyl)-1H-benzoimidazol-2-yl]-amide]: half-maximal inhibition on BACE-1 enzyme (IC50) required 0.7 µM. The EC50 in assay [1] turned out to be 0.76 µM.
The corresponding values for `Cc1cccc2nc(C(=O)Nc3nc4cc(-c5cc(C(F)(F)F)ccc5F)ccc4[nH]3)cn12` [Example 70, 5-Methyl-imidazo[1,2-a]pyridine-2-carboxylic acid [5-(2-fluoro-5-trifluoromethyl-phenyl)-1H-benzoimidazol-2-yl]-amide] are 0.26 µM and 0.21 µM.
Molecule `Cc1cccc2nc(C(=O)Nc3nc4cc(-c5ccc(C(F)(F)F)c(Cl)c5)ccc4[nH]3)cn12` [Example 92, 5-Methyl-imidazo[1,2-a]pyridine-2-carboxylic acid [5-(3-chloro-4-trifluoromethyl-phenyl)-1H-benzoimidazol-2-yl]-amide] showed an IC50 against BACE-1 enzyme of 0.6 µM. For the same molecule, in assay [1], the EC50 was found to be 0.22 µM.
In turn, `Cc1cccc2nc(C(=O)Nc3nc4cc(OCc5ccccc5C(F)(F)F)ccc4[nH]3)cn12` [Example 42, 5-Methyl-imidazo[1,2-a]pyridine-2-carboxylic acid [5-(2-trifluoromethyl-benzyloxy)-1H-benzoimidazol-2-yl]-amide] displayed an IC50 on BACE-1 enzyme of 0.38 µM. The molecule also displayed an EC50 in assay [1] of 3.45 µM.
As for `Cc1cccn2cc(C(=O)Nc3nc4cc(-c5ccc(C(F)(F)F)cc5)ccc4[nH]3)nc12` [Example 50, 8-Methyl-imidazo[1,2-a]pyridine-2-carboxylic acid [5-(4-trifluoromethyl-phenyl)-1H-benzoimidazol-2-yl]-amide], the midpoint of inhibition on BACE-1 enzyme, the IC50, lay at 0.32 µM. This molecule yielded an EC50 in assay [1] of 4.41 µM.
The corresponding values for `Cc1cccc2nc(C(=O)Nc3nc4cc(-c5ccc(C(F)(F)F)cc5)ccc4[nH]3)cn12` [Example 23, 5-Methyl-imidazo[1,2-a]pyridine-2-carboxylic acid [5-(4-trifluoromethyl-phenyl)-1H-benzoimidazol-2-yl]-amide] are 0.27 µM and 0.66 µM.
`COc1cc(F)cn2cc(C(=O)Nc3nc4cc(-c5cccc(C(F)(F)F)c5)ccc4[nH]3)nc12` [Example 127, 6-Fluoro-8-methoxy-imidazo[1,2-a]pyridine-2-carboxylic acid [5-(3-trifluoromethyl-phenyl)-1H-benzoimidazol-2-yl]-amide]: the IC50 on BACE-1 enzyme was 0.45 µM. This molecule gave an EC50 in assay [1] of 1.73 µM.
With `Cc1cccn2cc(C(=O)Nc3nc4cc(-c5ccc(C(C)(C)C)cc5)ccc4[nH]3)nc12` [Example 78, 8-Methyl-imidazo[1,2-a]pyridine-2-carboxylic acid [5-(4-tert-butyl-phenyl)-1H-benzoimidazol-2-yl]-amide], on BACE-1 enzyme, the IC50 is 0.37 µM. The molecule also registered an EC50 in assay [1] of 0.98 µM.
In turn, `O=C(Nc1nc2cc(-c3cccc(C(F)(F)F)c3)ccc2[nH]1)c1cn2c(OC3CCNCC3)cccc2n1` [Example 2, 5-(Piperidin-4-yloxy)-imidazo[1,2-a]pyridine-2-carboxylic acid[5-(3-trifluoromethyl-phenyl)-1H-benzoimidazol-2-yl]-amide trihydrochloride] yielded an IC50 on BACE-1 enzyme of 0.98 µM. For the same molecule, the EC50 in assay [1] amounted to 6.4 µM.
Turning to `COc1ccc(-c2ccc3[nH]c(NC(=O)c4cn5c(C)cccc5n4)nc3c2)cc1C(F)(F)F` [Example 76, 5-Methyl-imidazo[1,2-a]pyridine-2-carboxylic acid [5-(4-methoxy-3-trifluoromethyl-phenyl)-1H-benzoimidazol-2-yl]-amide], on BACE-1 enzyme, it took 0.38 µM to reach half-maximal inhibition (IC50). In assay [1], this molecule came in with an EC50 of 0.89 µM.
Molecule `Cc1cccc2nc(C(=O)Nc3nc4cc(-c5cccc(Cl)c5)ccc4[nH]3)cn12` [Example 27, 5-Methyl-imidazo[1,2-a]pyridine-2-carboxylic acid [5-(3-chloro-phenyl)-1H-benzoimidazol-2-yl]-amide] came in with an IC50 at BACE-1 enzyme of 0.5 µM. For the same molecule, in assay [1], it took 1.45 µM to reach a half-maximal effect (EC50).
Molecule `Cc1cccn2cc(C(=O)Nc3nc4cc(-c5cccc(C(F)(F)F)c5)ccc4n3C)nc12` [Example 241, 8-Methyl-imidazo[1,2-a]pyridine-2-carboxylic acid [1-methyl-5-(3-trifluoromethyl-phenyl)-1H-benzoimidazol-2-yl]-amide] came in with an IC50 against BACE-1 enzyme of 1.5 µM.
On the same count and under the same terms, the figure for `COc1ccc(-c2ccc3[nH]c(NC(=O)c4cn5cccc(C)c5n4)nc3c2)cc1C(F)(F)F` [Example 89, 8-Methyl-imidazo[1,2-a]pyridine-2-carboxylic acid [5-(4-methoxy-3-trifluoromethyl-phenyl)-1H-benzoimidazol-2-yl]-amide] is 2.28 µM.
For the molecule `O=C(Nc1nc2cc(-c3cc(F)cc(Cl)c3)ccc2[nH]1)c1cn2c(N3CCC(O)CC3)cccc2n1` [Example 158, 5-(4-Hydroxy-piperidin-1-yl)-imidazo[1,2-a]pyridine-2-carboxylic acid [5-(3-chloro-5-fluoro-phenyl)-1H-benzoimidazol-2-yl]-amide], the midpoint of inhibition on BACE-1 enzyme, the IC50, lay at 0.1 µM.
Take `O=C(Nc1nc2cc(-c3cc(F)cc(Cl)c3)ccc2[nH]1)c1cn2cc(F)cc(OCCN3CCCCC3)c2n1` [Example 147, 6-Fluoro-8-(2-piperidin-1-yl-ethoxy)-imidazo[1,2-a]pyridine-2-carboxylic acid [5-(3-chloro-5-fluoro-phenyl)-1H-benzoimidazol-2-yl]-amide]: the IC50 at BACE-1 enzyme was 0.41 µM.
For the molecule `Cc1cccc2nc(C(=O)Nc3nc4cc(-c5cnn(C)c5)ccc4[nH]3)cn12` [Example 41, 5-Methyl-imidazo[1,2-a]pyridine-2-carboxylic acid [5-(1-methyl-1H-pyrazol-4-yl)-1H-benzoimidazol-2-yl]-amide], half-maximal inhibition against BACE-1 enzyme (IC50) required 3.06 µM.
Same read-out and setting: the figure for `COCCCNc1cc(F)cn2cc(C(=O)Nc3nc4cc(-c5cc(F)cc(Cl)c5)ccc4[nH]3)nc12` [Example 139, 6-Fluoro-8-(3-methoxy-propylamino)-imidazo[1,2-a]pyridine-2-carboxylic acid [5-(3-chloro-5-fluoro-phenyl)-1H-benzoimidazol-2-yl]-amide] is 0.48 µM.
The molecule `Cc1cccc2nc(C(=O)Nc3nc4cc(-c5ccc(S(C)(=O)=O)cc5)ccc4[nH]3)cn12` [Example 73, 5-Methyl-imidazo[1,2-a]pyridine-2-carboxylic acid [5-(4-methanesulfonyl-phenyl)-1H-benzoimidazol-2-yl]-amide] returned an IC50 on BACE-1 enzyme of 1.24 µM.
